Results published in patent US20100040566A1, “EMULSION” (Riemann Trading ApS, priority 2006, published 2010).

Test: Determination of photo stability (Xenon arc lamp irradiation, HPLC of UV-filters)
Assay type: physicochemical
Settings: for photo stability (in words): 3 MED/2 h irradiation; for Content of UV-Filter Substances, After irradiation [3MED/2 h], Found [%]: Xenon arc lamp, 3 MED after two hours, HPLC; for Content of UV-Filter Substances, Before irradiation, Found [%]: in sample prepared as in Example 1, HPLC; for Content of UV-Filter Substances, After irradiation [3MED/2 h], [%] rel.: relative to content before irradiation
Text: The test sample are weighed and distributed evenly and homogeneously with a brush onto the marked area of a glass plate.
For the Irradiation we use a Xenon arc lamp because the continuous spectrum in the UV-region is near—identical to that of—natural light. The lamp is turned on approximately one hour before Irradiation.
The glass plate Is positioned under the lamp so that the square with the test sample is maximally illuminated.
The distance (lamp-glass plate) is acquired with the aid of a calibrated hand radiometer (PMA 2100) with UV-B detector. The radiant Intensity of the lamp on the sample is set up so that an Irradiation dose of 3 MED (Minimal Erythemal Dose) is given after two hours.
In order to ascertain to which extent each of the Individual UV-filters in the tested formulations has been photometrically degraded, they are analytically quantified before and after irradiation.
The instrumental-analytical method used is HPLC
Sample is prepared as described in Example 1

| Structure (SMILES) | photo stability (in words) | Content of UV-Filter Substances, After irradiation [3MED/2 h], Found [%] | Content of UV-Filter Substances, Before irradiation, Found [%] | Content of UV-Filter Substances, After irradiation [3MED/2 h], [%] rel. [%] |
| --- | --- | --- | --- | --- |
| CCCCCCOC(=O)c1ccccc1C(=O)c1ccc(N(CC)CC)cc1O [Diethylamino Hydroxybenzoyl Hexyl Benzoate] | very good value of photo stability | 1.21 | 1.29 | 93.8 |
| CCCCC(CC)COC(=O)C=Cc1ccc(OC)cc1 (stereo not drawn) [Ethylhexyl Methoxycinnamate] | relatively strong degradation | – | – | – |
| CCCCC(CC)COC(=O)C(C#N)=C(c1ccccc1)c1ccccc1 (stereo not drawn) [Octocrylene] | very good value of photo stability | 9.35 | 9.98 | 93.7 |
